In one assay the target is T1, Protein skinhead-1 (Caenorhabditis elegans, UniProt P34707).
T1 sequence (P34707 whole entry): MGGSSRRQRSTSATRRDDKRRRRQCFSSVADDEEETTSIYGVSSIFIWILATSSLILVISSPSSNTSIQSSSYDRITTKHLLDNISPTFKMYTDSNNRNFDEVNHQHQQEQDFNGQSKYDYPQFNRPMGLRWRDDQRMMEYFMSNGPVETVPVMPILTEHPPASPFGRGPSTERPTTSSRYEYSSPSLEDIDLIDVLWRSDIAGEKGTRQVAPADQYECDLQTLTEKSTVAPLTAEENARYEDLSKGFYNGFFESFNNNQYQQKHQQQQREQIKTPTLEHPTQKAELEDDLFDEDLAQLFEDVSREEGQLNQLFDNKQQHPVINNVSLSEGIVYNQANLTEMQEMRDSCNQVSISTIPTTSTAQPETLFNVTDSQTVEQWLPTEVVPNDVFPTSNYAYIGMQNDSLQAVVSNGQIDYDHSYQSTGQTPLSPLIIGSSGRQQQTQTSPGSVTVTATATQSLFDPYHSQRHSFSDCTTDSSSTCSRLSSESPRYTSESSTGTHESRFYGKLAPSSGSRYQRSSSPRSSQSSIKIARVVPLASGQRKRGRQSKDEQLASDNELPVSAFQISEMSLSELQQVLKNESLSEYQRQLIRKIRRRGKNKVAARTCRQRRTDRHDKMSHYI
The assay is classed as functional.

The target of assay [1] is T2, Rac GTPase-activating protein 1 (Homo sapiens, UniProt Q9H0H5).
T2 sequence (Q9H0H5 whole entry): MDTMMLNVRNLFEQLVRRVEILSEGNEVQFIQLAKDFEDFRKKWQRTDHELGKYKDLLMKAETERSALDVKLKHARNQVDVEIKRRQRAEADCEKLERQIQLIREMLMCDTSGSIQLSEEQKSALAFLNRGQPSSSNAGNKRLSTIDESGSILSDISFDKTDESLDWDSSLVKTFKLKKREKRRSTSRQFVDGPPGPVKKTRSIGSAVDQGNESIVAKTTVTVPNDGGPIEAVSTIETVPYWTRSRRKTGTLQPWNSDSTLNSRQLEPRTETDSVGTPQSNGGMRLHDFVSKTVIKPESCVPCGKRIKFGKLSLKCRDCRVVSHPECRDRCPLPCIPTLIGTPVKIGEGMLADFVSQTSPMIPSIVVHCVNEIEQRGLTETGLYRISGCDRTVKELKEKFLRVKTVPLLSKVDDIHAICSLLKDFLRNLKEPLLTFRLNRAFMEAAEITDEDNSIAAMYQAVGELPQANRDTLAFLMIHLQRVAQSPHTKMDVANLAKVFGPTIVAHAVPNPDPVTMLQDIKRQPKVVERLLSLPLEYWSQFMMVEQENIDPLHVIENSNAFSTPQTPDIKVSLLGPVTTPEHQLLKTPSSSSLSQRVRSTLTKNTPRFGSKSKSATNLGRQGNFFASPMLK
In words: blockers of MgcRacGAP-driven Rac1 GTP hydrolysis – biochemical, ADP Hunter fluorescence, primary and confirmatory, confirmation (AID 624330). The assay is classed as functional.

Another assay deals with T3, Cytochrome P450 1A2 (Homo sapiens, UniProt P05177).
T3 sequence (P05177 whole entry): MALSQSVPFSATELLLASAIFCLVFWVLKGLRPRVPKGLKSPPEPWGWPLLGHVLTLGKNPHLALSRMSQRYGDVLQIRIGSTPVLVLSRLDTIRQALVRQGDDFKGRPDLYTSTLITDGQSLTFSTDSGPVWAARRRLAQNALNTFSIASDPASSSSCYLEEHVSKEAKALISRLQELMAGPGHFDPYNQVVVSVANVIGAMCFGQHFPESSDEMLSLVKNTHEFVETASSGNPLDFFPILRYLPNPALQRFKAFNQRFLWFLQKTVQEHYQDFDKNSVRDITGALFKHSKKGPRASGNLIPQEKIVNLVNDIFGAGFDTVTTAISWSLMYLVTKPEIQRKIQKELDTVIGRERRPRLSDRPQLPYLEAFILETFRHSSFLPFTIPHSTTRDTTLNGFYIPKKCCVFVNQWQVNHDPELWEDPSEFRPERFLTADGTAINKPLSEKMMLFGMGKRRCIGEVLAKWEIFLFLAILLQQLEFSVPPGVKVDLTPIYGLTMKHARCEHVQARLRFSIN

A further assay addresses Cytochrome P450 2C19 (Homo sapiens, UniProt P33261). Put plainly: Cytochrome panel assay with activity outcomes. Panel member name: p450-cyp2c19 Compounds with AC50 equal or less than 10 uM are considered active. The format is functional. The note with it: read-out: AC50.
Another assay concerns the target Cytochrome P450 2C9 (Homo sapiens, UniProt P11712).
Another assay addresses Cytochrome P450 3A4 (Homo sapiens, UniProt P08684).
The nature of assay [2]: Luminescence Cell-Based Dose Confirmation HTS to Identify Inhibitors of Platelet Dense Granule Release. [Related pubchem assays: 1663 (Primary HTS), 1678 (Summary of Project)]. The assay is classed as functional.
For assay [3], the target named is Luciferin 4-monooxygenase (Photinus pyralis, UniProt P08659). In words: inhibition of purified Photinus pyralis luciferase – biochemical, luminescence, dose response (AID 1891).

For orientation: IC50 means the point on the concentration scale where inhibition reaches its midpoint. What is called AC50 is the concentration at which the activity in the assay is half-maximal. By EC50 is commonly meant the concentration at which the effect is half-maximal.

The structures appear in SMILES notation. Calls of active or inactive are those of the source.

Cytochrome P450 2C19, sequence (P33261 whole entry): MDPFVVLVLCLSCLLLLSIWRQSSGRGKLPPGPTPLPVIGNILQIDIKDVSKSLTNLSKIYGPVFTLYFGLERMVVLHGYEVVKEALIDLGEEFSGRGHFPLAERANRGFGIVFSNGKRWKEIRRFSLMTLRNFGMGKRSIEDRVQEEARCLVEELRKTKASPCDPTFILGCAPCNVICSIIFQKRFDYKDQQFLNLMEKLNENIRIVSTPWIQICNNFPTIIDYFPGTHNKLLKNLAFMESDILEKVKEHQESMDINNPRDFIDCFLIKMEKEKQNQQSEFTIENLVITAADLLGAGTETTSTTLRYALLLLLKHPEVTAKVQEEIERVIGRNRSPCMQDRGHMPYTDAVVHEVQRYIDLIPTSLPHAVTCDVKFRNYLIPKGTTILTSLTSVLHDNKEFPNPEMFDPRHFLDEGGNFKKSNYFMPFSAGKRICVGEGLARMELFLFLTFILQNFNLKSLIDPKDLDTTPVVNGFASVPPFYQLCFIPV
Cytochrome P450 2C9, sequence (P11712 whole entry): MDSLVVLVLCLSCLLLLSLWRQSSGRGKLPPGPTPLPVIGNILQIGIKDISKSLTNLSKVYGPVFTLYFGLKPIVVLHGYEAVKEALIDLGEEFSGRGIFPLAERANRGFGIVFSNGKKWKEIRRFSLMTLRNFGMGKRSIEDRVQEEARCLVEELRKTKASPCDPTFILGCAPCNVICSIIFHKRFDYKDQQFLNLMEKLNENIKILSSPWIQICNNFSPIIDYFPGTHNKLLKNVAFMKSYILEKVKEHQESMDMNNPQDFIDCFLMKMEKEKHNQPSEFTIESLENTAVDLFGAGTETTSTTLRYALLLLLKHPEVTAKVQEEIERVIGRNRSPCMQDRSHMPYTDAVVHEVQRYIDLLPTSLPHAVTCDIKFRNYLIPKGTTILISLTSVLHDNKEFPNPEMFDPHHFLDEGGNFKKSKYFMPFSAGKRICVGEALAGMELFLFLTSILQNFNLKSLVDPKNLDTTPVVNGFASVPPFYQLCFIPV
Cytochrome P450 3A4, sequence (P08684 whole entry): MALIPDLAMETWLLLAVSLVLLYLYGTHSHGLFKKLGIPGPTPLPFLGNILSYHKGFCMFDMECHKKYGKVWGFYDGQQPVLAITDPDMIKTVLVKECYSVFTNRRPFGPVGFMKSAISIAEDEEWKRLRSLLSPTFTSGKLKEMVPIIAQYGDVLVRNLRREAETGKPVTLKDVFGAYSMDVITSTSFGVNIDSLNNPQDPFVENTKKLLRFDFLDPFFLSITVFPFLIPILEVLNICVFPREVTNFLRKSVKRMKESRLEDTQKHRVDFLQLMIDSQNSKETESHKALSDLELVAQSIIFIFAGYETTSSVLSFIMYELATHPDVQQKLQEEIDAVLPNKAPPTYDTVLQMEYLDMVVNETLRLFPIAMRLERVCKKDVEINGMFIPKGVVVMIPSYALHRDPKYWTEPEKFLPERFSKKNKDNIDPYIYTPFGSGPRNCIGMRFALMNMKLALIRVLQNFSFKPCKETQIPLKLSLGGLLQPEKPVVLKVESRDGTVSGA
Luciferin 4-monooxygenase, sequence (P08659 whole entry): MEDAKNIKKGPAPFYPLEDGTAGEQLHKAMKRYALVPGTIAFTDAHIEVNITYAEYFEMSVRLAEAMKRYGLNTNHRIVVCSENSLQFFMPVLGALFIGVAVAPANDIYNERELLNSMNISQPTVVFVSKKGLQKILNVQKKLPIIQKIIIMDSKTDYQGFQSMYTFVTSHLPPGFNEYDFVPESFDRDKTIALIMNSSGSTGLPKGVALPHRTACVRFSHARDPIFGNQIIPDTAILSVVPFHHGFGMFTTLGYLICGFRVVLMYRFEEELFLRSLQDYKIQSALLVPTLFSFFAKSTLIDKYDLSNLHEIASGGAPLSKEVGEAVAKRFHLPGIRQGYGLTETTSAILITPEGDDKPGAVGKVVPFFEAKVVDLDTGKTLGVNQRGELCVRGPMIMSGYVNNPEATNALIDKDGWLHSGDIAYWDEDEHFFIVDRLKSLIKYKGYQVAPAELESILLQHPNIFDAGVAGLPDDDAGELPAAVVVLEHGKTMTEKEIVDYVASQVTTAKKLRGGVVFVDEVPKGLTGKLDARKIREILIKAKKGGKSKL

For the compound `CCCCCOC(=O)c1ccc(NC(=O)c2ccco2)cc1`, the IC50 on Protein skinhead-1 is > 100 µM (inactive).
With `CCCS(=O)(=O)N1CCN(C2CCC(C)CC2)CC1` (stereo not given), in assay [1], the IC50 is 232 µM (active).
Take `COc1ccccc1C(=O)Nc1ccc2c(c1)nc(CCNC(=O)c1ccccc1)n2C`: on Protein skinhead-1, the IC50 is > 100 µM (inactive).
Turning to `CCOC(=O)Nc1ccc(NCc2ccc(F)cc2)nc1N` [FLUPIRTINE], the AC50 on Cytochrome P450 1A2 is 39.8 µM (inconclusive); on Cytochrome P450 2C19, 25.1 µM (inconclusive); on Cytochrome P450 2C9, 25.1 µM (inconclusive).
Turning to `CCc1ccc(Nc2oc(C)cc(=O)c2C(C)=O)cc1`, the IC50 at Protein skinhead-1 was > 100 µM (inactive).
The same measure, in the same setting: the value for `CC(C)CCNC(=O)NC(=O)COc1c(F)c(F)cc(F)c1F` was > 100 µM (inactive); that for `O=S(=O)(Cc1ccc(Cl)cc1)Oc1ccc(Cl)cc1` was > 100 µM (inactive); that for `CN1/C(=C\C(=O)Nc2cccc(Cl)c2)C(C)(C)c2ccccc21` was > 100 µM (inactive).
Same read-out and setting: the figure for `CC(C)C(c1nnnn1Cc1ccco1)N1CCN(C2CCCC2)CC1` (stereo not given) is > 100 µM (inactive).
Consider `COc1ccc(NS(=O)(=O)c2cccc(C(=O)NN=Cc3ccc(O)c(OC)c3)c2)cc1`, for which the IC50 in assay [1] is 79.4 µM (active).
Regarding `Cn1c(=O)c(-c2cc(F)cc(F)c2)nc2cnc(N3CCNCC3)nc21`, the AC50 is 31.6 µM (inconclusive) on Cytochrome P450 3A4 and 25.1 µM (inconclusive) on Cytochrome P450 2C9.
Take `O=c1cc(CN2CCOCC2)c2ccc(O)c(O)c2o1`: the IC50 in assay [1] was 82.7 µM (active).
Turning to `COc1cc(/C=N/NC(=O)/C(=C/c2ccccc2)CCO)ccc1O`, the IC50 in assay [1] was 35.7 µM (active). For the same compound, the EC50 was 11.1 µM (active) in assay [2] and > 112 µM (not active) in assay [3].
`Cn1nccc1C(=O)N1CCC(Cc2ccccc2)CC1`: at Protein skinhead-1, the IC50 was > 100 µM (inactive).
For the compound `O=C(c1cccc(F)c1)N1CCN(C2CCCCC2)CC1`, the IC50 in assay [1] was 116 µM (active).
Same read-out and setting: the figure for `CCOC(=O)C1CCCN(C2=NC(=O)/C(=C/c3ccc(O)c(OCC)c3)S2)C1` (stereo not given) is 26.5 µM (active); for `COc1ccc(NCCC(O)c2ccc(Cl)cc2)cc1` (stereo not given) it is 29.1 µM (active).
Consider `O=c1cnc2cncnc2n1Cc1ccccc1`, for which the results for the AC50 at Cytochrome P450 3A4, on Cytochrome P450 2C19 and at Cytochrome P450 2C9 were 20 µM (inconclusive), 39.8 µM (inconclusive) and 31.6 µM (inconclusive), respectively.
On to `CSCC[C@H](N)C(=O)N1CCC(C(=O)N[C@@H](Cc2c[nH]c3ccccc23)C(=O)O)CC1`, for which the IC50 on Protein skinhead-1 is > 100 µM (inactive).
The same measure, in the same setting: the figure for `O=C(NCc1ccco1)c1sc2cc(Cl)ccc2c1Cl` is > 100 µM (inactive).
As for `O=C(c1ccncc1)N1CCC2(CC1)CCN(C(c1ccccc1)c1ccccc1)CC2`, the AC50 was 12.6 µM (inconclusive) on Cytochrome P450 1A2, 39.8 µM (inconclusive) at Cytochrome P450 2C19 and 12.6 µM (inconclusive) at Cytochrome P450 2C9.
As to `Cc1[nH]c2ccccc2c1SCc1ccccc1`, the concentration for half-maximal inhibition (IC50) at Protein skinhead-1 was 42.6 µM (active).
Take `Nc1ccc(/N=N\c2ccc(-c3ccc(O)cc3)cc2)c2ccc(S(=O)(=O)O)cc12`: the AC50 at Cytochrome P450 2C19 is 6.31 µM (inconclusive); at Cytochrome P450 2C9, 5.01 µM (inconclusive).
`CC1=N/C(=C\c2ccc([N+](=O)[O-])cc2)C(=O)N1c1ccc(Br)c(C)c1`: the AC50 was 5.62 µM (inconclusive) at Cytochrome P450 1A2 and 7.94 µM (inconclusive) on Cytochrome P450 2C9.

These data come from ChEMBL document CHEMBL1201862, “PubChem BioAssay data set” (2004).
